Tested on: 598228-144-R-J1-PDC complex spheroid viability
Test: Anticancer human tumor 598228-144-R-J1-PDC patient-derived serous endometrial adenocarcinoma cell line growth inhibition [GQUAD]
Settings: for IC50: curve of first compound; for viability, T/C: stronger effect = lower value
In short: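 Multi-cell-type spheroids of tumor cells with HUVEC and mesenchymal stem cells, treated with drug combinations. Concentrations descend in half-log steps from near clinical Cmax, or from 10 microM where Cmax is unknown; viability read-out.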
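Also: spheroids exposed to the agents for one week before reading.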
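For viability, T/C in this document: percent of vehicle DMSO control viability so 100% = untreated growth.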

For CCc1c2c(nc3ccc(O)cc13)-c1cc3c(c(=O)n1C2)COC(=O)[C@]3(O)CC + CN(C)c1ccc(Nc2c3ccc(NC(=O)CCN4CCCC4)cc3nc3cc(NC(=O)CCN4CCCC4)ccc23)cc1, the IC50 (second compound 0.0316 µM) was 7.57 nM, the IC50 (second compound 0.1 µM) was 13.5 nM and the IC50 (second compound 0.316 µM) was 12.1 nM. For the same compound, the IC50 (second compound 1 µM) was under 0.999 nM, the IC50 (second compound 3.16 µM) was 15 nM and the IC50 (second compound 10 µM) was under 0.999 nM. It also gave a viability, T/C (second compound 0.0316 µM, first compound 0.000999 µM) of 68.8%, a viability, T/C (second compound 0.0316 µM, first compound 0.00316 µM) of 56.2% and a viability, T/C (second compound 0.0316 µM, first compound 0.00999 µM) of 45.6%. The viability, T/C (second compound 0.0316 µM, first compound 0.0316 µM) was 39.7%, the viability, T/C (second compound 0.0316 µM, first compound 0.0999 µM) was 30.5% and the viability, T/C (second compound 0.0316 µM, first compound 0.316 µM) was 18.8%. The viability, T/C (second compound 0.1 µM, first compound 0.000999 µM) was 65.3%, the viability, T/C (second compound 0.1 µM, first compound 0.00316 µM) was 53.1% and the viability, T/C (second compound 0.1 µM, first compound 0.00999 µM) was 56.1%. The viability, T/C (second compound 0.1 µM, first compound 0.0316 µM) was 41.2%, the viability, T/C (second compound 0.1 µM, first compound 0.0999 µM) was 25.3% and the viability, T/C (second compound 0.1 µM, first compound 0.316 µM) was 15.5%. The viability, T/C (second compound 0.316 µM, first compound 0.000999 µM) was 70.2%, the viability, T/C (second compound 0.316 µM, first compound 0.00316 µM) was 50.4% and the viability, T/C (second compound 0.316 µM, first compound 0.00999 µM) was 45.7%. It also gave a viability, T/C (second compound 0.316 µM, first compound 0.0316 µM) of 55.3%, a viability, T/C (second compound 0.316 µM, first compound 0.0999 µM) of 27.7% and a viability, T/C (second compound 0.316 µM, first compound 0.316 µM) of 16.9%. For the same compound, the viability, T/C (second compound 1 µM, first compound 0.000999 µM) was 50.5%, the viability, T/C (second compound 1 µM, first compound 0.00316 µM) was 42% and the viability, T/C (second compound 1 µM, first compound 0.00999 µM) was 49.9%. For the same compound, the viability, T/C (second compound 1 µM, first compound 0.0316 µM) was 49%, the viability, T/C (second compound 1 µM, first compound 0.0999 µM) was 27.7% and the viability, T/C (second compound 1 µM, first compound 0.316 µM) was 15.9%. For the same compound, the viability, T/C (second compound 3.16 µM, first compound 0.000999 µM) was 58.6%, the viability, T/C (second compound 3.16 µM, first compound 0.00316 µM) was 57.2% and the viability, T/C (second compound 3.16 µM, first compound 0.00999 µM) was 59.1%. The viability, T/C (second compound 3.16 µM, first compound 0.0316 µM) was 37.4%, the viability, T/C (second compound 3.16 µM, first compound 0.0999 µM) was 26% and the viability, T/C (second compound 3.16 µM, first compound 0.316 µM) was 16.8%. The viability, T/C (second compound 10 µM, first compound 0.000999 µM) was 60.6%, the viability, T/C (second compound 10 µM, first compound 0.00316 µM) was 33.6% and the viability, T/C (second compound 10 µM, first compound 0.00999 µM) was 37.7%. For the same compound, the viability, T/C (second compound 10 µM, first compound 0.0316 µM) was 45.6%, the viability, T/C (second compound 10 µM, first compound 0.0999 µM) was 23.5% and the viability, T/C (second compound 10 µM, first compound 0.316 µM) was 10.5%.
